Source: PubChem BioAssay AID1189 (EPA DSSTox, 2008)
Calls of active or inactive are those of the source.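 Rule for the calls: active = a tumor-causing dose value with its tumor site reported for any sex and species group of a rodent or other animal cancer study; inconclusive = only studies judged inadequate by the national testing program; inactive = tested in at least one study, none positive.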

Assay: DSSTox (CPDBAS) Carcinogenic Potency Database Summary SingleCellCall Results
Conditions: animal chronic carcinogenicity bioassays, CPDB summary call
Summary of the method: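 Literature-derived summary: each substance receives an overall carcinogenic/non-carcinogenic category drawn from long-term bioassays in rats, mice, hamsters, dogs or primates, using the most positive sex-species experiment and minimal evidence criteria.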

Structure (SMILES) | outcome
CCN(CC)C(=S)S | inactive; active
CCN(CC)c1ccc(N=Nc2cc[n+]([O-])cc2)cc1 | active
O=[N+]([O-])c1ccc2ccc3cccc4ccc1c2c34 | active
COc1cc(/C=C/C(=O)OCCc2ccccc2)ccc1O | inactive; active
O=[N+]([O-])c1ccc(Oc2ccc(Cl)cc2Cl)cc1 | active
O=NN1CCC[C@H]1C(=O)O | inactive
CC(C)C(C(=O)OC(C#N)c1cccc(Oc2ccccc2)c1)c1ccc(Cl)cc1 (stereo not drawn) | inactive
O=S1(=O)N=C(O)c2ccccc21 | inactive
Nc1nc(N)nc(-c2ccccc2)n1 | inactive; active
N#Cc1c(Cl)c(Cl)c(Cl)c(C#N)c1Cl | active; inactive
Oc1ccc(-c2ccccc2)cc1 | inactive; active
CCCOC(=O)C1c2cc3c(cc2CC(C)C1C(=O)OCCC)OCO3 (stereo not drawn) | inactive
O=CNNc1nc(-c2ccc([N+](=O)[O-])o2)cs1 | active
COP(=O)(OC)OC=C(Cl)Cl | active
COC(=O)C(c1ccccc1)C1CCCCN1N=O (stereo not drawn) | inactive
Clc1cc2c(c(Cl)c1Cl)Oc1c(cc(Cl)c(Cl)c1Cl)O2 | active
NC(=O)OCC(COC(N)=O)c1ccccc1 | active; inactive
COC(=O)C(C)(C)Oc1ccc(-c2ccc(Cl)cc2)cc1 | active
CCNc1nc(Cl)nc(NC(C)C)n1 | active
CC1=C2C(=CO[C@@H](C)[C@@H]2C)C(=O)C(C(=O)O)=C1O | active
CC(=O)NN | active

Structure (SMILES) | outcome
CCCCCC(N)=O | active
CC(=O)CN(N=O)C(N)=O | active
CC(/C=C/C=C(\C)C(=O)O[C@@H]1O[C@H](CO[C@@H]2O[C@H](CO)[C@@H](O)[C@H](O)[C@H]2O)[C@@H](O)[C@H](O)[C@H]1O)=C\C=C\C=C(C)\C=C\C=C(/C)C(=O)O[C@@H]1O[C@H](CO[C@@H]2O[C@H](CO)[C@@H](O)[C@H](O)[C@H]2O)[C@@H](O)[C@H](O)[C@H]1O | inactive
Cn1c(N)nc2c3cccnc3ccc21 | active; inactive
CN(C)C(=O)Nc1ccc(Cl)c(Cl)c1 | inactive
Cc1ccc(-c2cc(C(F)(F)F)nn2-c2ccc(S(N)(=O)=O)cc2)cc1 | inactive
Nc1ccc(Oc2ccc(N)c(N)c2)cc1 | active
COc1ccc2c3c1O[C@H]1[C@@H](O)C=C[C@H]4[C@@H](C2)N(C)CC[C@@]341 | inactive
O=C(O)CCl | inactive; active
CN(CCO)N=O | active
NC(=O)NNc1ccccc1 | active; inactive
c1ccc(Nc2ccc(Nc3ccccc3)cc2)cc1 | inactive
Cc1ncc([N+](=O)[O-])n1C | active
CSCCC(N)C(=O)O (stereo not drawn) | inactive
O=C1CN(/N=C/c2ccc([N+](=O)[O-])o2)C(=O)N1 | active
C/C=C(\C)C(=O)O[C@@H]1CCN2CC=C(COC(=O)C(O)(C(C)C)C(C)O)[C@H]12 (stereo partly drawn) | active
Nc1nc(-c2ccc([N+](=O)[O-])o2)cs1 | active
Nc1ccc([N+](=O)[O-])cc1N | inactive; active
ClC(Cl)=C(c1ccc(Cl)cc1)c1ccc(Cl)cc1 | active
O=C1N(CCO)CCN1/N=C/c1ccc([N+](=O)[O-])o1 | active
Clc1ccc(C(c2ccc(Cl)cc2)C(Cl)Cl)cc1 | active

Structure (SMILES) | outcome
CC(N)Cc1ccccc1 (stereo not drawn) | inactive
CCNC(=O)N(CCN(C)C)N=O | active
O=C1C=C2C(=CCOC2O)O1 (stereo not drawn) | inactive
O=S(=O)(O)c1cc(S(=O)(=O)O)c2c(N=Nc3ccccc3)c(O)ccc2c1 | inactive
NC(=O)c1ccccc1C(N)=O | inactive
COCCl | active; inactive
CC(C)n1c(/C=C/[C@@H](O)C[C@@H](O)CC(=O)O)c(-c2ccc(F)cc2)c2ccccc21 | active
O=P1(NCCCl)OCCCN1CCCl (stereo not drawn) | active; inactive
CNC[C@H](O)c1ccc(O)c(O)c1 | inactive
C=C1C(C)(C)[C@@]2(Cl)C(Cl)[C@]1(Cl)C(Cl)(Cl)C2(Cl)Cl (stereo partly drawn) | active
CC(=O)OC[C@]12C[C@H](OC(=O)CC(C)C)C(C)=C[C@H]1O[C@@H]1[C@H](O)[C@@H](OC(C)=O)[C@@]2(C)C12CO2 (stereo partly drawn) | active; inactive
O=C(O)Cc1cccc2ccccc12 | inactive; active
CN(C)N | active
Nc1ccc2c(c1)oc1ccccc12 | active
CCCN(N=O)C(N)=O | active
CCCCCCCCCCN(C)N=O | active
CN(CCCC(=O)c1cccnc1)N=O | active
Cc1cc(=O)n(-c2ccccc2)n1C | active; inactive
CN(C)Nc1nc(-c2ccc([N+](=O)[O-])o2)cs1 | active; inactive
O=NN1CCCC1c1cccnc1 (stereo not drawn) | active
Cc1ccc(OP(=O)(Oc2ccc(C)cc2)Oc2ccc(C)cc2)cc1 | inactive
